In patent publication US20200405697A1, “Antitumor Agent” (Taiho Pharmaceutical Co., Ltd, priority 2017, published 2020):

Key:
[1] = test system: A549 (Human lung cancer cell line); experiment: Effect of combination of sulfonamide compound and other antitumor agent (CellTiter-Glo, combination index): A549
Experimental: (§1) Each cell line was seeded at 90 L/well to a 96-well culture plate (Thermo Fisher Scientific, Inc.) according to the above tables. The cell-seeded plate was cultured in an incubator set to 37° C. and 500 CO2. On the day following seeding, varying concentrations of the sulfonamide compound and the other antitumor agent were added in combination to the cells. […] The serial dilutions of each compound, or DW was added at 5μL/well to the plate such that each compound and DW, or the sulfonamide compound and the other antitumor agent were combined. […] The plate after the addition was cultured at 37° C. for 3 days under 5% CO2 conditions.
(§2) Three days later, CellTiter-Glo(R) 2.0 Reagent (Promega Corporation) was added at 100 μL/well, and the amount of luminescence was measured using a plate reader EnSpire(R) Multimode Plate Reader (PerkinElmer Co., Ltd.).
(§3) An average value from 3 wells was calculated as to each drug condition from the obtained data, and cell survival rate normalized against control wells supplemented with the vehicle (DW) was calculated. A Fa (fractional inhibition) value was calculated by subtracting the cell survival rate from 1.

[2] = test system: MV-4-11 (Human blood cancer cell line); experiment: Effect of combination of sulfonamide compound and other antitumor agent (CellTiter-Glo, combination index): MV-4-11
Experimental: as §1, §2, §3

[3] = Example Compound 14 874 nM + Cytarabine 72.2 nM
[4] = Example Compound 14 1310 nM + Cytarabine 108 nM
[5] = Example Compound 14 1970 nM + Cytarabine 163 nM
[6] = Example Compound 14 2950 nM + Cytarabine 244 nM
[7] = Example Compound 14 4420 nM + Cytarabine 365 nM
[8] = Example Compound 209A 188 nM + Cytarabine 72.2 nM
[9] = Example Compound 209A 282 nM + Cytarabine 108 nM
[10] = Example Compound 209A 635 nM + Cytarabine 244 nM
[11] = Example Compound 209A 952 nM + Cytarabine 365 nM
[12] = Example Compound 235A 780 nM + Cytarabine 111 nM
[13] = Example Compound 235A 1170 nM + Cytarabine 166 nM
[14] = Example Compound 235A 1750 nM + Cytarabine 249 nM
[15] = Example Compound 5 247 nM + Cytarabine 175 nM
[16] = Example Compound 5 555 nM + Cytarabine 393 nM
[17] = Example Compound 5 833 nM + Cytarabine 590 nM
[18] = Example Compound 5 1250 nM + Cytarabine 885 nM
[19] = Example Compound 14 519 nM + Cytarabine 175 nM
[20] = Example Compound 14 1170 nM + Cytarabine 394 nM
[21] = Example Compound 14 1750 nM + Cytarabine 589 nM
[22] = Example Compound 14 2630 nM + Cytarabine 886 nM
[23] = Example Compound 209A 96.6 nM + Cytarabine 175 nM
[24] = Example Compound 209A 217 nM + Cytarabine 393 nM
[25] = Example Compound 209A 326 nM + Cytarabine 590 nM
[26] = Example Compound 235A 90.1 nM + Cytarabine 116 nM
[27] = Example Compound 235A 135 nM + Cytarabine 174 nM
[28] = Example Compound 235A 304 nM + Cytarabine 393 nM
[29] = Example Compound 235A 456 nM + Cytarabine 589 nM
[30] = Example Compound 235A 684 nM + Cytarabine 884 nM
[31] = Example Compound 14 1970 nM + Decitabine 1340 nM
[32] = Example Compound 14 2950 nM + Decitabine 2000 nM
[33] = Example Compound 14 4420 nM + Decitabine 3000 nM
[34] = Example Compound 209A 635 nM + Decitabine 2000 nM
[35] = Example Compound 235A 520 nM + Decitabine 1340 nM
[36] = Example Compound 235A 780 nM + Decitabine 2020 nM
[37] = Example Compound 235A 1170 nM + Decitabine 3020 nM
[38] = Example Compound 5 247 nM + Decitabine 50.2 nM
[39] = Example Compound 5 370 nM + Decitabine 75.2 nM
[40] = Example Compound 5 555 nM + Decitabine 113 nM
[41] = Example Compound 5 833 nM + Decitabine 169 nM
[42] = Example Compound 5 1250 nM + Decitabine 254 nM
[43] = Example Compound 14 519 nM + Decitabine 50.1 nM
[44] = Example Compound 14 778 nM + Decitabine 75.2 nM
[45] = Example Compound 14 1170 nM + Decitabine 113 nM
[46] = Example Compound 14 1750 nM + Decitabine 169 nM
[47] = Example Compound 14 2630 nM + Decitabine 254 nM
[48] = Example Compound 209A 64.4 nM + Decitabine 33.4 nM
[49] = Example Compound 209A 96.6 nM + Decitabine 50.1 nM
[50] = Example Compound 209A 217 nM + Decitabine 113 nM
[51] = Example Compound 209A 326 nM + Decitabine 169 nM
[52] = Example Compound 235A 90.1 nM + Decitabine 33.4 nM
[53] = Example Compound 235A 135 nM + Decitabine 50.1 nM
[54] = Example Compound 235A 304 nM + Decitabine 113 nM
[55] = Example Compound 235A 456 nM + Decitabine 169 nM
[56] = Example Compound 235A 684 nM + Decitabine 254 nM
[57] = Example Compound 14 874 nM + Fludarabine nucleoside 5930 nM
[58] = Example Compound 14 1310 nM + Fludarabine nucleoside 8890 nM
[59] = Example Compound 14 1970 nM + Fludarabine nucleoside 13400 nM
[60] = Example Compound 14 2950 nM + Fludarabine nucleoside 20000 nM
[61] = Example Compound 209A 188 nM + Fludarabine nucleoside 5930 nM
[62] = Example Compound 209A 282 nM + Fludarabine nucleoside 8890 nM
[63] = Example Compound 209A 635 nM + Fludarabine nucleoside 20000 nM
[64] = Example Compound 235A 520 nM + Fludarabine nucleoside 8870 nM
[65] = Example Compound 235A 780 nM + Fludarabine nucleoside 13300 nM
[66] = Example Compound 235A 1170 nM + Fludarabine nucleoside 20000 nM
[67] = Example Compound 235A 1750 nM + Fludarabine nucleoside 29900 nM
[68] = Example Compound 5 370 nM + Fludarabine nucleoside 6150 nM
[69] = Example Compound 5 555 nM + Fludarabine nucleoside 9220 nM
[70] = Example Compound 14 778 nM + Fludarabine nucleoside 6150 nM
[71] = Example Compound 14 1170 nM + Fludarabine nucleoside 9250 nM
[72] = Example Compound 235A 304 nM + Fludarabine nucleoside 9220 nM

Compound: Nc1ccn([C@@H]2O[C@H](CO)[C@@H](O)[C@@H]2O)c(=O)n1 [Cytarabine, cytarabine]
- CI value [1, 3]: 0.670
- Fa value [1, 3]: 0.3745
- CI value [1, 4]: 0.790
- Fa value [1, 4]: 0.4356
- CI value [1, 5]: 0.616
- Fa value [1, 5]: 0.6170
- CI value [1, 6]: 0.498
- Fa value [1, 6]: 0.7754
- CI value [1, 7]: 0.490
- Fa value [1, 7]: 0.8591
- CI value [1, 8]: 0.777
- Fa value [1, 8]: 0.3588
- CI value [1, 9]: 0.759
- Fa value [1, 9]: 0.4675
- CI value [1, 10]: 0.474
- Fa value [1, 10]: 0.7994
- CI value [1, 11]: 0.574
- Fa value [1, 11]: 0.8410
- CI value [1, 12]: 0.878
- Fa value [1, 12]: 0.4015
- CI value [1, 13]: 0.693
- Fa value [1, 13]: 0.6327
- CI value [1, 14]: 0.581
- Fa value [1, 14]: 0.8184
- CI value [2, 15]: 0.638
- Fa value [2, 15]: 0.4093
- CI value [2, 16]: 0.553
- Fa value [2, 16]: 0.9212
- CI value [2, 17]: 0.366
- Fa value [2, 17]: 0.9948
- CI value [2, 18]: 0.386
- Fa value [2, 18]: 0.9986
- CI value [2, 19]: 0.766
- Fa value [2, 19]: 0.2908
- CI value [2, 20]: 0.599
- Fa value [2, 20]: 0.8743
- CI value [2, 21]: 0.387
- Fa value [2, 21]: 0.9860
- CI value [2, 22]: 0.269
- Fa value [2, 22]: 0.9984
- CI value [2, 23]: 0.739
- Fa value [2, 23]: 0.5055
- CI value [2, 24]: 0.510
- Fa value [2, 24]: 0.9736
- CI value [2, 25]: 0.330
- Fa value [2, 25]: 0.9981
- CI value [2, 26]: 0.740
- Fa value [2, 26]: 0.1704
- CI value [2, 27]: 0.645
- Fa value [2, 27]: 0.4683
- CI value [2, 28]: 0.510
- Fa value [2, 28]: 0.9522
- CI value [2, 29]: 0.365
- Fa value [2, 29]: 0.9958
- CI value [2, 30]: 0.374
- Fa value [2, 30]: 0.9989

Compound: Nc1ncn([C@H]2C[C@H](O)[C@@H](CO)O2)c(=O)n1 [Decitabine, decitabine]
- CI value [1, 31]: 0.542
- Fa value [1, 31]: 0.3867
- CI value [1, 32]: 0.577
- Fa value [1, 32]: 0.5183
- CI value [1, 33]: 0.602
- Fa value [1, 33]: 0.6737
- CI value [1, 34]: 0.569
- Fa value [1, 34]: 0.5615
- CI value [1, 35]: 0.570
- Fa value [1, 35]: 0.2897
- CI value [1, 36]: 0.567
- Fa value [1, 36]: 0.4383
- CI value [1, 37]: 0.650
- Fa value [1, 37]: 0.5537
- CI value [2, 38]: 0.685
- Fa value [2, 38]: 0.3382
- CI value [2, 39]: 0.725
- Fa value [2, 39]: 0.4753
- CI value [2, 40]: 0.709
- Fa value [2, 40]: 0.6924
- CI value [2, 41]: 0.693
- Fa value [2, 41]: 0.8888
- CI value [2, 42]: 0.608
- Fa value [2, 42]: 0.9844
- CI value [2, 43]: 0.707
- Fa value [2, 43]: 0.3361
- CI value [2, 44]: 0.872
- Fa value [2, 44]: 0.4089
- CI value [2, 45]: 0.849
- Fa value [2, 45]: 0.5994
- CI value [2, 46]: 0.717
- Fa value [2, 46]: 0.8350
- CI value [2, 47]: 0.599
- Fa value [2, 47]: 0.9588
- CI value [2, 48]: 0.793
- Fa value [2, 48]: 0.2551
- CI value [2, 49]: 0.839
- Fa value [2, 49]: 0.3812
- CI value [2, 50]: 0.715
- Fa value [2, 50]: 0.8536
- CI value [2, 51]: 0.627
- Fa value [2, 51]: 0.9689
- CI value [2, 52]: 0.725
- Fa value [2, 52]: 0.2126
- CI value [2, 53]: 0.757
- Fa value [2, 53]: 0.3356
- CI value [2, 54]: 0.760
- Fa value [2, 54]: 0.7532
- CI value [2, 55]: 0.687
- Fa value [2, 55]: 0.9339
- CI value [2, 56]: 0.535
- Fa value [2, 56]: 0.9935

Compound: Nc1nc(F)nc2c1ncn2[C@@H]1O[C@H](CO)[C@@H](O)[C@@H]1O [Fludarabine nucleoside, fludarabine nucleoside]
- CI value [1, 57]: 0.549
- Fa value [1, 57]: 0.3063
- CI value [1, 58]: 0.387
- Fa value [1, 58]: 0.7007
- CI value [1, 59]: 0.377
- Fa value [1, 59]: 0.8610
- CI value [1, 60]: 0.537
- Fa value [1, 60]: 0.8736
- CI value [1, 61]: 0.558
- Fa value [1, 61]: 0.3666
- CI value [1, 62]: 0.386
- Fa value [1, 62]: 0.7059
- CI value [1, 63]: 0.515
- Fa value [1, 63]: 0.8634
- CI value [1, 64]: 0.568
- Fa value [1, 64]: 0.4460
- CI value [1, 65]: 0.423
- Fa value [1, 65]: 0.7798
- CI value [1, 66]: 0.504
- Fa value [1, 66]: 0.8525
- CI value [1, 67]: 0.734
- Fa value [1, 67]: 0.8595
- CI value [2, 68]: 0.739
- Fa value [2, 68]: 0.6600
- CI value [2, 69]: 0.293
- Fa value [2, 69]: 0.9981
- CI value [2, 70]: 0.786
- Fa value [2, 70]: 0.5954
- CI value [2, 71]: 0.296
- Fa value [2, 71]: 0.9984
- CI value [2, 72]: 0.320
- Fa value [2, 72]: 0.9988
